Series [1] addresses Histamine H4 receptor (Rattus norvegicus) (UniProt Q91ZY1). Nature of the series: Antagonist activity at rat histamine H4 receptor assessed as decrease in intracellular calcium by FLIPR. It is filed as functional, cell-based. For orientation: A change in cytosolic calcium serves as a functional read-out for many receptors and channels.
For series [2] the target is unchanged. As to the kind of experiment: Antagonist activity at rat histamine H4 receptor assessed as decrease in intracellular calcium by FLIPR relative to histamine. It is filed as functional, cell-based. Also noted: concentration or dose not given beside the values.
For series [3], the target named is T1, Histamine H4 receptor (Homo sapiens, UniProt Q9H3N8). As to conditions: HEK293.
T1 sequence (Q9H3N8 whole entry): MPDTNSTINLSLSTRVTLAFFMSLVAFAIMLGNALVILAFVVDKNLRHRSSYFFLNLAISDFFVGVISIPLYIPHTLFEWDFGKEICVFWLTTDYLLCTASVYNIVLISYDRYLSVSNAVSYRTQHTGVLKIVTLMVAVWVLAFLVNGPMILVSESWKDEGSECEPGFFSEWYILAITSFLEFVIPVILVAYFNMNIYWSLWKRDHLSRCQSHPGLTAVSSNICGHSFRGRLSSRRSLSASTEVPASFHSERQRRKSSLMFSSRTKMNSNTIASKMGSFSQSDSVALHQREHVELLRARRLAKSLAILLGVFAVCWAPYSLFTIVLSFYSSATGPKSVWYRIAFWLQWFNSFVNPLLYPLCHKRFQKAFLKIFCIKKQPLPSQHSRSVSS
The target in series [4] is T2, Histamine H4 receptor (Mus musculus) (UniProt Q91ZY2).
T2 sequence (whole entry): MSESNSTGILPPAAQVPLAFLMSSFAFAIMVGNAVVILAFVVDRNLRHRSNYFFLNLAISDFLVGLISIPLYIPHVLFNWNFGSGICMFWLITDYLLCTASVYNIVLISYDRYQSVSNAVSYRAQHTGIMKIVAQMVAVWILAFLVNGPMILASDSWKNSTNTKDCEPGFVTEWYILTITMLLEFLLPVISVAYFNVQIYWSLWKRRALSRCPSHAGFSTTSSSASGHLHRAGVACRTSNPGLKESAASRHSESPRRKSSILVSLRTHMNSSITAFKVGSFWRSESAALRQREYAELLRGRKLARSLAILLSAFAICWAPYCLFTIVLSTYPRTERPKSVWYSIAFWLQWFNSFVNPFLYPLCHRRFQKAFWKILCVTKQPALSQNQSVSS
Nature of the series: Antagonist activity at mouse histamine H4 receptor assessed as decrease in intracellular calcium by FLIPR. It is filed as functional, cell-based.

Series [5] has as its system Mus musculus. Nature of the series: Inhibition of clobenpropit-induced scratching in hind paw of ip dosed mouse administered 30 mins before. It is filed as functional.
The target in series [6] is T1, Histamine H4 receptor. Nature of the series: Agonist activity at human histamine H4 receptor expressed in HEK293 cells coexpressing Galphaqi5 assessed as increase in intracellular calcium by FLIPR relative to histamine.
Series [7] is described as follows: Lipophilicity, log D at pH7.5. As to conditions: buffer, pH 7.5. It is filed as physicochemical.
The target of series [8] is Histamine H3 receptor (Rattus norvegicus, UniProt Q9QYN8). As to the kind of experiment: Displacement of [3H]NAMH from rat histamine H3 receptor expressed in C6 cells after 1 hr by liquid scintillation counting. It is filed as cell-based. In general terms: In a radioligand displacement assay an active substance lowers the binding of a labelled ligand.
Sequence of Histamine H3 receptor (Rattus norvegicus, UniProt Q9QYN8) (Q9QYN8 whole entry): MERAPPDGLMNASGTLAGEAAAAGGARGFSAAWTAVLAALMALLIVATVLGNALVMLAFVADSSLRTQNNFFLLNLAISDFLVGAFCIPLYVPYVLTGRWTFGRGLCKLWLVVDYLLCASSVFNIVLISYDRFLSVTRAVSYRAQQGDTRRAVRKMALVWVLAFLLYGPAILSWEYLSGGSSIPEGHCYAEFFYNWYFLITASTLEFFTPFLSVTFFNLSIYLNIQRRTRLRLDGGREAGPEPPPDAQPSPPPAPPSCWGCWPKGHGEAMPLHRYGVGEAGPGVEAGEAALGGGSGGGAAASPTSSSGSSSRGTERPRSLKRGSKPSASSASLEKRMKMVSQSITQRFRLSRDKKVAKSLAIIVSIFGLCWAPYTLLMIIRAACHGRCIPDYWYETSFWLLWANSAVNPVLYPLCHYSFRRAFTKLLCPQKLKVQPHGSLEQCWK
In series [9] the target is T1, Histamine H4 receptor. Nature of the series: Displacement of [3H]-histamine from human histamine H4 receptor expressed in HEK293 cells after 1 hr by liquid scintillation counting. It is filed as cell-based.
Series [10] deals with Histamine H3 receptor (Homo sapiens, UniProt Q9Y5N1). Nature of the series: Displacement of [3H]NAMH from human histamine H3 receptor expressed in C6 cells after 1 hr by liquid scintillation counting. The class given is cell-based.
Sequence of Histamine H3 receptor (Homo sapiens, UniProt Q9Y5N1) (Q9Y5N1 whole entry): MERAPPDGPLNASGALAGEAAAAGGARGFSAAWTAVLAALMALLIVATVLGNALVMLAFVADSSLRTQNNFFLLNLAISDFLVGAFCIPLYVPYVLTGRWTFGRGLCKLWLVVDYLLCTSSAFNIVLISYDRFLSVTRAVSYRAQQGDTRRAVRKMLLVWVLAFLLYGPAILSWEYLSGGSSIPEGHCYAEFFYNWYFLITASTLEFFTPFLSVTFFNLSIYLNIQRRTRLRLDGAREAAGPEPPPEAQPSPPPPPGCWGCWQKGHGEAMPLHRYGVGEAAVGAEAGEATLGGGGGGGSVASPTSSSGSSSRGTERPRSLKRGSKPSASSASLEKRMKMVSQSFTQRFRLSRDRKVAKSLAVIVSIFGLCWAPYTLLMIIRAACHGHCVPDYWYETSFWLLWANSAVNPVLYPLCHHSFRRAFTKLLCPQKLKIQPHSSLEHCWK
Series [11] concerns the target Histamine H4 receptor (Rattus norvegicus, UniProt Q91ZY1). As to the kind of experiment: Displacement of [3H]-histamine from rat histamine H4 receptor after 1 hr by liquid scintillation counting.

Where only a bound is given, the exact number is not on record here.

Sequence of Histamine H4 receptor (Rattus norvegicus, UniProt Q91ZY1) (Q91ZY1 whole entry): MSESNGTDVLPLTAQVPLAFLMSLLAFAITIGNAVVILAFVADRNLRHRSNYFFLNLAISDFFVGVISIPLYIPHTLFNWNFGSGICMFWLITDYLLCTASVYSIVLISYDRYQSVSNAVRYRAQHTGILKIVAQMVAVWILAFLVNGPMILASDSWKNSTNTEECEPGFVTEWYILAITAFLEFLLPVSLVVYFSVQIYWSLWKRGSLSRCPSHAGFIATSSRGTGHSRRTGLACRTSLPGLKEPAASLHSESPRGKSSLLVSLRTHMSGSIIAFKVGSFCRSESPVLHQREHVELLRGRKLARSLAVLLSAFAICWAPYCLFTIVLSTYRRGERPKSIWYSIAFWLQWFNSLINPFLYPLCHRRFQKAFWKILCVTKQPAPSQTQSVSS
Sequence of Histamine H4 receptor (Rattus norvegicus) (Q91ZY1 whole entry): as above

Regarding `Nc1nc(N2C[C@H]3CCCN[C@H]3C2)c2c(n1)C1(CCCC1)CCC2`, the pKb (usually −log10 of the Kb, conventionally taken in molar units) in [1] was below 6.6; in series [3], 8.07. Moreover, the Activity in series [2] came out at 35%.

For the compound `Nc1nc(N2C[C@H]3CCCN[C@H]3C2)c2c(n1)C1(CCCCC1)CCC2`, the pKb in [1] is 5.81; in [3], 7. Moreover, in [2], the Activity was found to be 50%.

As for `Nc1nc(N2CCNCC2)c2c(n1)C1(CCCCC1)CCC2`, the pKb in series [1] is below 4.86; in series [3], 7.32. In series [2], the Activity was found to be 105%.

For the compound `Nc1nc2c(c(N3C[C@H]4CCCN[C@H]4C3)n1)CCCCC2c1ccccc1` (stereo not given in full), the pKb in [1] was determined as 8.24; in series [4], 7.9; in [3] it was 7.88. Besides, the ED50 (usually the midpoint of the dose-response relation) in series [5] came to 3 µmol/kg.

As for `Nc1nc(N2CCNCC2)c2c(n1)C1(CCC2)Cc2ccccc2C1`, the pKb in [1] is 4.86; in series [3], 4.57. Further, the Activity in [2] was determined as 135%; in [6] it was 49%.

Take `Nc1nc(N2CCNCC2)c2c(n1)C1(CCCC1)CCC2`: the results for the pKb in series [1] and in series [3] were 5.42 and 8.56, respectively. In addition, in series [2], the Activity was found to be 87%. Further, in [7], the logD (commonly lipophilicity at a set pH, counting ionised and neutral species) worked out at 2.2.

In the case of `Nc1nc(N2CCC(N)(C(=O)O)CC2)c2c(n1)C1(CCCC1)CCC2`, the negative-log Kb (pKb) in [1] was below 4.68; in series [3], below 4.67.

Consider `CNC1CN(c2nc(N)nc3c2CCCC32CCCC2)C1`, for which the pKb in [1] was 7.6; in series [3], 8.34. In series [2], the Activity came to 46%. Moreover, the Ki – broadly, a measure of affinity in units of concentration, obtained from inhibition or displacement – is 6.76 nM in series [8], 1.51 nM in series [9], 63.1 nM in series [10] and 1.45 nM in series [11]. Moreover, the log distribution coefficient (logD) in [7] worked out at 1.6.

Take `Nc1nc(N2C[C@H]3CNC[C@H]3C2)c2c(n1)C1(CCCC1)CCC2` (stereo in doubt; 34): the values for the pKb in series [1] and in [3] were 5.65 and 5.99, respectively. Further, the Activity in series [2] stood at 48%.

Turning to `CN(C)CCOc1nc(N)nc2c1CCCC21CCCC1`, the negative-log Kb (pKb) in series [1] was below 6; in series [3], 8.11. In addition, in series [2], the Activity turned out to be 88%.

In the case of `CN[C@@H]1CCN(c2nc(N)nc3c2CCCC(c2ccccc2)C3)C1` (stereo not given in full), the Ki was 105 nM in series [8] and 224 nM in [10].

For the compound `Nc1nc(N2CC[C@@H](N)C2)c2c(n1)C1(CCCC1)CCC2`, the pKb in series [1] was determined as 6.76; in [4], 7.82; in [3], 8.57. In series [2], the Activity stood at 71%. Further, the Ki in [8] was 79.4 nM; in series [10] it was 295 nM. In addition, in series [5], the 50% effect level (ED50) was put at a dose of 1 µmol/kg.

For `COC(=O)C1(N)CCN(c2nc(N)nc3c2CCCC32CCCC2)CC1`, the results for the pKb in series [1] and in series [3] were 4.77 and 4.9, respectively. Besides, the Activity in [2] came out at 52%.

Regarding `CN[C@@H]1CCN(c2nc(N)nc3c2CCCC32CCCC2)C1`, the pKb stood at 7.48 in [1] and 8.54 in [3]. In addition, the Activity in series [2] stood at 58%. In addition, the Ki in series [8] was 72.4 nM; in [9], 2 nM; in [10], 105 nM; in series [11], 2.63 nM.

Turning to `Nc1nc2c(c(N3CCNCC3)n1)CCCCC2c1ccccc1` (stereo not given), the pKb in [1] was 7.26; in [4], 7.34; in [3], 7.24. For the same compound, the results for the Ki in [8] and in series [10] were 661 nM and 2240 nM, respectively. Moreover, it took a dose of 10 µmol/kg to reach the 50% effect level in series [5] (ED50). In addition, in series [7], the logD worked out at 1.73.

For the compound `CN1CCC(Oc2nc(N)nc3c2CCCC32CCCC2)CC1`, the pKb was below 5.48 in [1] and 7.7 in series [3]. The Activity in [2] stood at 86%.

Consider `Nc1nc2c(c(N3CC4CCCNC4C3)n1)CCCCC2c1ccccc1` (stereo not given), for which the results for the Ki in series [9] and in series [11] were 7.08 nM and 2.69 nM, respectively. The pKb in series [3] was 7.59.

Take `CNC1CN(c2nc(N)nc3c2CCCCC3c2ccccc2)C1` (stereo not given): in series [7], the logD is 2.05.

For `Nc1nc(N2CC[C@@H](N)C2)c2c(n1)C1(CCCCC1)CCC2`, the pKb was below 4.96 in series [1] and 7.33 in series [3]. In [2], the Activity was found to be 84%.

With `Nc1nc(N2C[C@H]3CNC[C@H]3C2)c2c(n1)C1(CCCC1)CCC2` (stereo in doubt; 33), the pKb came out at 5.13 in [1] and 5.96 in series [3]. For the same compound, the Activity in [2] stood at 53%.

Consider `Nc1nc(N2CC[C@@H](N)C2)c2c(n1)C1(CCC2)Cc2ccccc2C1`, for which the pKb in series [1] was determined as 6.09; in series [3], 6.3.

Consider `Nc1nc(N2CCCNCC2)c2c(n1)C1(CCCC1)CCC2`, for which the pKb in series [1] is below 5.32; in series [3], 8.01. Besides, in [2], the Activity was 77%.

As to `Nc1nc(N2CC[C@H](N)C2)c2c(n1)C1(CCCC1)CCC2`, the pKb in [1] is 6.87; in [3] it was 7.28. In addition, in series [2], the Activity was determined as 63%.

Take `CN1CCC(Nc2nc(N)nc3c2CCCC32CCCC2)CC1`: the pKb in series [1] is 6.9; in [3], 7.66. In series [2], the Activity came out at 84%.

Take `Nc1nc(N2CC(N)C2)c2c(n1)C1(CCCC1)CCC2`: the pKb in series [1] is 4.63; in series [3], below 4.16. In addition, the Activity in series [2] worked out at 48%.

Source of the values: ChEMBL document CHEMBL1155405, “Rigidified 2-aminopyrimidines as histamine H4 receptor antagonists: effects of substitution about the rigidifying ring” (Bioorg Med Chem Lett, 2010).
